Source: patent US6552039B2, “Fungicidal combinations comprising a 4-phenoxyquinoline” (Syngenta Crop Protection, Inc., priority 1998, dated 2003)
Read-outs that look alike come from different tables or passages of the source.

How the values were obtained:
Format in all cases: in vivo
Erysiphe graminis = experiment: Field test on Erysiphe graminis, winter wheat cv. Kanzler (Example B-6); conditions: for % infested leaf area after 29 days: winter wheat field trial, untreated control 15
Procedure: A field trial was carried out in Germany with winter wheat, cv.Kanzler. The experiment was arranged with 4 replicates in randomized plots of 12.5 m^2. Cyproconazole was used as a EC240, quinoxyfen as a SC500 and the mixture cyproconazole/quinoxyfen as a SC155 formulation. Cyproconazole was applied at 80 g a.i./ha, quinoxyfen at 75 g a.i./ha and the mixture contained the same amounts of the individual active ingredients. The spray volume of all treatments was 400 l/ha. Disease assessment of Erysiphe graminis was estimated 29 days after application when untrated control plants had 15% infected leaf area. Results are expressed as % activity calculated on the basis of % infected leaf area.

[1] = system: Erysiphe graminis f. sp. tritici; experiment: Efficacy against Erysiphe graminis f.sp. tritici on wheat (Example B-5), foliar spray, synergy by COLBY
Source text: A synergistic effect exists whenever the action of an active ingredient combination is greater than the sum of the actions of the individual components.
The action to be expected E for a given active ingredient combination obeys the so-called COLBY formula and can be calculated as follows (COLBY, S. R. “Calculating synergistic and antagonistic responses of herbicide combination”. Weeds, Vol. 15, pages 20-22; 1967):
According to Colby, the expected (additive) action of active ingredients I+II using p+q ppm of active ingredient is [formula]
If the action actually observed (O) is greater than the expected action (E), then the action of the combination is superadditive, i.e. there is a synergistic effect.
Five to ten wheat seeds c.v. “Arina” are sown in plastic pots of 7 cm diameter and grown for 7 to 12 days at 20° C., 50-70% rH. When the primary leaves have fully expanded, the plants are spray treated with aqueous spray liquors containing the single compounds, or mixtures thereof (hereinafter a.i.). All compounds are used as experimental or commercially available formulations, combinations are applied as tank mixtures. The application comprises foliar spraying to near runoff (three pots per treatment). 24 hours after the application or 24 hours before application, the plants are inoculated in a settling tower with fresh spores of Erysiphe graminis f. sp. tritici. The plants are then incubated in a growth chamber at 20° C., 60% rH. Seven days after the inoculation, the percentage of infection on primary leaves is evaluated. The efficacy of the a.i. is determined by comparing the degree of fungal attack on treated plants with that on untreated, similarly inoculated and incubated check plants. Each a.i. is tested at 4 to 5 concentrations. The synergie factor is calculated according to the COLBY method.

Septoria spp. = experiment: Activity against Septoria, field trial, winter wheat cv. Consort (Example B-8); conditions: for % infested leaf after 84 days: winter wheat field trial, untreated control 97
Procedure: A field trial was carried out in Great Britain with winter wheat, cv. Consort. The experiment was arranged with 4 replicates in randomized plots each of 36 m^2. Application was carried out at 5-10% infected leaf area on the lower leaves. Cyproconazole was used as a EC240, quinoxyfen as a SC500 and the mixture cyproconazole/quinoxyfen as a SC155 formulation. Cyproconazole was applied at 80 g a.i./ha, quinoxyfen at 75 g a.i./ha and the mixture contained the same amounts of the individual active ingredients. The spray volume of all treatments was 200 l/ha. Disease assessment of Septoria spp. was estimated 84 days after application when the untrated control plants had approximated 97% infected leaf area. Results are expressed as % activity calculated on the basis of % infected leaf area.

Uncinula necator = experiment: Activity against Uncinula necator on grape plants (Example B-7)
Procedure: The deposit is then allowed to dry. One day later, the treated plants are inoculated by dusting freshly harvested conidia over the test plants; then the plants were incubated in a growt chamber for 10-14 days at +22° C. and 70% r.h. The efficacy of the test compounds is determined by comparing the degree of fungal attack with that on untreated, similarly inoculated check plants. I

[2] = Blumeria graminis, foliar, curative application, single a.i. 0.05 mg a.i./l, read-out: % activity observed
[3] = curative application, single a.i. 0.1 mg a.i./l
[4] = protective application, single a.i. 0.1 mg a.i./l
[5] = protective application, single a.i. 0.25 mg a.i./l

SMILES: Fc1ccc(Oc2ccnc3cc(Cl)cc(Cl)c23)cc1 [Quinoxyfen]
- inhibition at 75 g/ha (Erysiphe graminis; Blumeria graminis, 696 h, SC500, 75 g a.i./ha, 29 days after application, read-out: % activity observed): 33%
- % infested leaf area after 29 days (Erysiphe graminis; SC500, 75 g a.i./ha): 10%
- inhibition at 0.05 µg/mL [1, 2]: 1%
- inhibition at 0.1 µg/mL ([1]; Blumeria graminis, foliar, curative application, single a.i. 0.1 mg a.i./l, read-out: % activity observed): 3%
- inhibition at 0.25 µg/mL ([1]; Blumeria graminis, foliar, curative application, single a.i. 0.25 mg a.i./l, read-out: % activity observed): 6%
- inhibition at 0.5 µg/mL ([1]; Blumeria graminis, foliar, curative application, single a.i. 0.5 mg a.i./l, read-out: % activity observed): 4%
- inhibition at 1 µg/mL ([1]; Blumeria graminis, foliar, curative application, single a.i. 1 mg a.i./l, read-out: % activity observed): 7%
- inhibition at 0.05 µg/mL ([1]; Blumeria graminis, foliar, protective application, single a.i. 0.05 mg a.i./l, read-out: % activity observed): 0%
- inhibition at 0.1 µg/mL ([1]; Blumeria graminis, foliar, protective application, single a.i. 0.1 mg a.i./l, read-out: % activity observed): 1%
- inhibition at 0.25 µg/mL ([1]; Blumeria graminis, foliar, protective application, single a.i. 0.25 mg a.i./l, read-out: % activity observed): 3%
- inhibition at 75 g/ha (Septoria spp.; 2016 h, SC500, 75 g a.i./ha, 84 days after application, read-out: % activity observed): 12%
- % infested leaf after 84 days (Septoria spp.; SC500, 75 g a.i./ha): 85%
- inhibition at 0.1 µg/mL (Uncinula necator; Erysiphe necator, single a.i. 0.1 mg a.i./l, read-out: % activity observed): 48%
- inhibition at 1 µg/mL (Uncinula necator; Erysiphe necator, single a.i. 1 mg a.i./l, read-out: % activity observed): 58%

SMILES: CCCC1COC(Cn2cncn2)(c2ccc(Cl)cc2Cl)O1 (stereo not shown) [Propiconazole]
- % activity observed [1, 3]: 34%
- % activity observed [1, 4]: 1%
- % activity observed [1, 5]: 12%

SMILES: CC(C1CC1)C(O)(Cn1cncn1)c1ccc(Cl)cc1 (stereo not shown) [Cyproconazole]
- % activity observed (Erysiphe graminis; SL100, 80 g a.i./ha, 29 days after application): 60%
- % infested leaf area after 29 days (Erysiphe graminis; SL100, 80 g a.i./ha): 6%
- % activity observed ([1]; curative application, single a.i. 0.05 mg a.i./l): 7%
- % activity observed [1, 3]: 8%
- % activity observed ([1]; curative application, single a.i. 0.25 mg a.i./l): 16%
- % activity observed ([1]; curative application, single a.i. 0.5 mg a.i./l): 24%
- % activity observed ([1]; protective application, single a.i. 0.05 mg a.i./l): 1%
- % activity observed [1, 4]: 2%
- % activity observed [1, 5]: 4%
- % activity observed ([1]; protective application, single a.i. 0.5 mg a.i./l): 12%
- % activity observed (Septoria spp.; EC240, 80 g a.i./ha, 84 days after application): 42%
- % infested leaf after 84 days (Septoria spp.; EC240, 80 g a.i./ha): 56%

SMILES: CC(Cc1ccc(C(C)(C)C)cc1)CN1CCCCC1 (stereo not shown) [Fenpropidin]
- inhibition at 0.05 µg/mL [1, 2]: 0%
- inhibition at 0.5 µg/mL ([1]; Blumeria graminis, foliar, protective application, single a.i. 0.5 mg a.i./l, read-out: % activity observed): 2%

SMILES: CCCC(Cn1cncn1)c1ccc(Cl)cc1Cl (stereo not shown) [Penconazole]
- % activity observed (Uncinula necator; single a.i. 0.1 mg a.i./l): 7%
- % activity observed (Uncinula necator; single a.i. 1 mg a.i./l): 42%

SMILES: Cc1cc(C2CC2)nc(Nc2ccccc2)n1 [Cyprodinil]
- % activity observed ([1]; curative application, single a.i. 25 mg a.i./l): 25%
